# Assay results published in patent US20210087525A1, “COST EFFECTIVE CULTURE MEDIA AND PROTOCOL FOR HUMAN INDUCED PLURIPOTENT STEM CELLS” (NORTHWESTERN UNIVERSITY, priority 2019, published 2021).
# How the values were obtained:
# hiPSC = experiment: long-term 5-passage, 4-day hiPSC growth assay; format: cell-based, human; conditions: for confirmed concentration in long-term assay: FIG. 5A-C; for necessity of component for hiPSC culture: long-term assay, removal of dispensable components reduces growth rate; for concentration confirmed / usable / required in long-term assay: FIG. 5D-L
# From the text: FIG. 5A-P. Optimization of B8 Medium Constituents with a Long-Term Growth Assay. Results are normalized to initial medium component concentrations shown with a dark gray bar, optimizations were completed using long-term 5-passage, 4-day growth assay. Comparison of the effect of (A) recombinant human insulin concentration on relative growth (n=10). (B) L-ascorbic acid 2-phosphate (n=10). (C) Recombinant transferrin (n=10). (D) Sodium selenite (n=5). (E) In-house made FGF2-G3 (n=6). (G) NODAL (n=5). (H) Activin A (n=5). (I) In-house made TGFb3 after 9 passages compared to commercial TGFb1 (n=9). (J) Addition of NRG1 to 40 ng ml−1 FGF2-G3 (n>5). (K) Final B8 formula. n=full experimental replicates, unpaired Student's T-test, *P≤0.05, **P≤0.01, ***P≤0.005, ****P≤0.0001, n.s.=not significant.
# Our initial short-term experiments provided preliminary optimizations, yet we were aware from previous experiments that some variables, such as the elimination of TGFβ1, had minimal effects short-term and would only have detectable negative effects in long-term experiments. Thus the effectiveness of a long-term assay was evaluated with the following assay protocol: […]
# hiPSC line 19-3 = experiment: short-term 6-day hiPSC growth assay (media variable optimization); format: cell-based, human; conditions: for necessity of component for hiPSC growth: short-term assay, FIG. 2; for concentrations showing a similar effect on growth rate: FGF2-G3 compared with FGF2-K128N; for optimal / sufficient concentration for growth: one passage growth assay, FIG. 2E-F
# From the text: FIG. 2A-F. Optimization of Basic Human Pluripotent Stem Cell Medium Constituents with a Short-Term Growth Assay. Results are normalized to initial medium component concentrations shown with a dark gray bar, optimizations were completed using short-term 6-day growth assay. […] (A) Comparison of the effect of recombinant human IGF1 LR3 (n=3) and recombinant human insulin (n=18-22) concentrations on relative growth. (B) L-ascorbic acid 2-phosphate (n=19-27). (C) Transferrin (n=2-20). (D) Sodium selenite (n=3-20). (E) FGF2-K128N (n=3-12). (F) TGFb1 (n=20-25). n=full experimental replicates, unpaired Student's T-test, *P≤0.05, **P≤0.01, ***P≤0.005, ****P≤0.0001, n.s.=not significant.
# FIG. 3A-H. Optimization of Additional Human Pluripotent Stem Cell Medium Constituents in a Short-Term Assay. E8 medium component concentrations are shown with a dark gray bar, optimizations were completed using a simple 6-day growth assay. […] (A) Comparison of the suitability of recombinant transferrin (10 μg ml−1) to support clonal growth with and without ROCK1/2 inhibition using Y27632 (10 μM) during the first 24 h after passage (n=3). (B) Comparison of two common ROCK1/2 inhibitors only during first 24 h after passage on relative growth (n>5). (C) Comparison of the effect of the addition of non-essential amino acids (NEAA) and chemically defined lipids (n=5) on relative growth. (D) Fatty acid-free albumin (n=4). (E) Sodium bicarbonate (n=5). (F) pH (n=9). (G) Osmolarity (n=8). (H) FGF2-G3 (n=3). n=full experimental replicates, unpaired Student's T-test, *P≤0.05, **P≤0.01, ***P≤0.005, ****P≤0.0001, n.s.=not significant.
# The hiPSC line 19-3 was dissociated with TrypLE (Gibco™, 12604-013) for 3 min at 37° C. and cells were resuspended in DMEM/F12, transferred to a 15 ml conical tube (Falcon) and centrifuged at 200×g for 3 min (Sorvall ST40). The pellet was resuspended in DMEM/F12, diluted to 1×10^5 cells per ml and 10,000 cells were plated per well in Matrigel® (1:800)-coated 12-well plates (Greiner) in the medium to be tested along with 2 μM thiazovivin for the first 24 h. Media were changed daily and cells were grown for 6 days. This lower than normal seeding density was used to allow the discovery of factors only detectable under more extreme conditions and therefore provide data on the robustness to the formulation.
# [1] = cited from earlier work
# phospho-ERK = experiment: stimulation of phospho-ERK in FGF2-starved hiPSC by media stored at 37° C. (Western blot); format: cell-based, human
# Experimental: FIG. 7A-E. Qualification of B8 as Suitable for hiPSC Generation and Culture. […] (B) Expression of pluripotent markers in a variety of B8-derived hiPSC lines. (C) Example G-banding karyotype analysis of four hiPSC lines derived in B8 from blood. (D) hiPSC growth at low seeding densities in B8 compared to E8 (n=8). (E) Assessment of stimulation of phospho-ERK after media had been stored at 37° C. for 2 or 7 days, comparing in-house generated FGF2-G3 to a commercial FGF2 (Peprotech). hiPSC were starved of FGF2 for 24 h then treated with the indicated media for 1 h before collection for Western blot. Total ERK was used as a loading control.
# Stock lysis buffer was prepared as 150 mM NaCl, 20 mM Tris pH 7.5, 1 mM EDTA, 1 mM EGTA, and 1% Triton X-100 and stored at 4° C. Fresh complete lysis buffer was prepared with final concentration of 1× Protease Inhibitor (Roche, 5892791001), 1× Phosphatase Inhibitor Cocktail 2 (P5726, Sigma), 1× Phosphatase Inhibitor Cocktail 3 (Sigma, P0044), 2 mM PMSF (Sigma, P7626), and 1% SDS Solution (Fisher Scientific, BP2436200). hiPSC were starved using B8 without FGF2 for 24 hours, then treated with media containing the corresponding FGF2 for 1 h. Media was then removed, and cells were washed once with DPBS, harvested with 0.5 mM EDTA in DPBS, and transferred into tubes. Samples were pelleted by centrifugation at 500×g for 3 minutes and the supernatant was discarded. The pellet was resuspend in 150 μl complete lysis buffer and incubated on ice for 30 min. Clear lysates were collected by centrifugation at 10,000×g for 10 min at 4° C. The protein concentration was measured with Qubit Protein Assay Kit (Invitrogen, Q33211) and Qubit 4 fluorometer. Lysates was stored in −80° C. before use. 10 μg of sample was prepared with NuPAGE™ LDS Sample Buffer (Invitrogen, B0007) and NuPAGE™ Reducing Agent (Invitrogen, B0009) according to the manufacturer's instructions and run on NuPAGE™ 10% Bis-Tris Gel (Invitrogen, NP0302BOX) and Mini Gel Tank system (Invitrogen, A25977) with Bolt MES SDS Running Buffer (Invitrogen, B000202) at 100 V for 1 h. […]
molecule,measurement,setting,value
"O=C1O[C@H]([C@@H](O)CO)C(O)=C1OP(=O)(O)O.[Na+].[Na+].[Na+] [Ascorbic acid 2-phosphate, L-ascorbic acid 2-phosphate trisodium salt]",confirmed concentration in long-term assay,hiPSC,200 µg/mL
same,necessity of component for hiPSC culture,hiPSC,dispensable
same,necessity of component for hiPSC growth,hiPSC line 19-3,not essential
O=C([O-])O.[Na+] [sodium bicarbonate],optimal concentration for growth,hiPSC line 19-3; FIG. 3E,29 mM
O=[Se](O)O [sodium selenite],concentration confirmed / usable / required in long-term assay,hiPSC,20 ng/mL
same,concentrations that did not significantly affect growth,hiPSC line 19-3; FIG. 2D,2 to 200 ng/mL
"O=C(NCc1ccccc1)c1csc(Nc2ccncn2)n1 [thiazovivin, reference compound]",effect on growth vs 10 μM Y27632,"hiPSC line 19-3; 2 μM for the first 24 h after passage, FIG. 3B","marginally, though not significantly, improved growth"
"FGF2-K128N: recombinant human FGF2 with K128N substitution, made in-house in E. coli (SEQ ID NO: 4/14)",concentrations showing a similar effect on growth rate,hiPSC line 19-3; FIG. 3H,100 ng/mL
same,optimal / sufficient concentration for growth,hiPSC line 19-3,≥ 40 ng/mL
"FGF2: fibroblast growth factor 2, human FGF2 (SEQ ID NO: 3)",necessity of component for hiPSC growth,hiPSC line 19-3,essential
"IGF1 LR3: recombinant human IGF1 LR3 (Sigma, 91590C)",level of IGF1 LR3 able to replace insulin,"hiPSC line 19-3; FIG. 2A, not cost-effective",≥ 1 µg/mL
"TGFβ1: recombinant human TGFβ1 (112 amino acid, HEK293-derived, Peprotech)",concentration confirmed / usable / required in long-term assay,hiPSC,0.1 ng/mL
same,necessity of component for hiPSC culture,hiPSC,essential
same,optimal / sufficient concentration for growth,hiPSC line 19-3,≥ 0.5 ng/mL
"TGFβ1m: TGFβ1 with C77S point mutation, unable to form dimers, produced in E. coli",potency relative to TGFβ1 (fold less potent),"[1]; monomeric C77S protein, predicted (Kim et al., 2015)",~20 fold
TGFβ3: 112 amino acid TGFβ3 (SEQ ID NO: 16) made in E. coli as thioredoxin fusion protein,concentration confirmed / usable / required in long-term assay,hiPSC,0.1 ng/mL
same,potency relative to TGFβ1,"[1]; Huang et al., 2014",more potent than TGFβ1
"Transferrin: Oryza sativa-derived recombinant human transferrin (Optiferrin, InVitria)",confirmed concentration in long-term assay,hiPSC,20 µg/mL
same,necessity of component for hiPSC culture,hiPSC,dispensable
same,concentration enhancing growth / giving optimal growth,hiPSC line 19-3; FIG. 2B-C,20 µg/mL
same,necessity of component for hiPSC growth,hiPSC line 19-3,not essential
commercial FGF2: a commercial FGF2 (Peprotech) [reference compound],pERK stimulation after storage of media at 37° C.,phospho-ERK; 2 days at 37° C.,not capable of stimulating pERK
insulin: E. coli-derived recombinant human insulin (Gibco),confirmed concentration in long-term assay,hiPSC,20 µg/mL
same,concentration up to which effect on growth was dose-dependent,hiPSC line 19-3; FIG. 2A,up to 20 μg ml^−1
same,necessity of component for hiPSC growth,hiPSC line 19-3,essential
"Activin A: Activin/NODAL/TGFβ1 signaling source (protein, UniProt P08476 311-426, looked up, Inhibin beta A chain) Inhibin beta A chain: GLECDGKVNICCKKQFFVSFKDIGWNDWIIAPSGYHANYCEGECPSHIAGTSGSSLSFHSTVINHYRMRGHSPFANLKSCCVPTKLRPMSMLYYDDGQNIIKKDIQNMIVEECGCS",effect on growth in combination with TGFβ1,hiPSC; FIG. 5I,negative effect on growth
same,suitability to maintain growth,"hiPSC; alone, FIG. 5H",not suitable to maintain growth to the same level as TGFβ1
same,support of growth at very low doses,hiPSC; very low doses,"could support growth, albeit to a lesser extent than TGFβ1"
"NODAL: Activin/NODAL/TGFβ1 signaling source (protein, UniProt Q96S42 238-347, looked up) Nodal homolog: HHLPDRSQLCRKVKFQVDFNLIGWGSWIIYPKQYNAYRCEGECPNPVGEEFHPTNHAYIQSLLKRYQPHRVPSTCCAPVKTKPLSMLYVDNGRVLLDHHKDMIVEECGCL",concentration confirmed / usable / required in long-term assay,hiPSC,100 ng/mL
NRG1: 65 amino acid truncated neuregulin 1 containing just the EGF domain (SEQ ID NO: 17) (protein) SHLVKCAEKEKTFCVNGGECFMVKDLSNPSRYLCKCPNEFTGDRCQNYVMASFYKHLGIEFMEAE,enhancement of growth over FGF2-G3 alone,hiPSC; all tested levels of NRG1 added to 40 ng ml−1 FGF2-G3,> 15%
same,necessity of component for hiPSC culture,hiPSC,dispensable
same,support of growth in the absence of FGF2,hiPSC; no FGF2,not able to support growth
"FGF2-G3: thermostable FGF2 with nine point mutations, made in-house in E. coli (SEQ ID NO: 15) (protein) AAGSITTLPALPEDGGSGAFPPGHFKDPKLLYCKNGGFFLRIHPDGRVDGTRDKSDPFIKLQLQAEERGVVSIKGVCANRYLAMKEDGRLYAIKNVTDECFFFERLEENNYNTYRSRKYPSWYVALKRTGQYKLGSKTGPGQKAILFLPMSAKS",concentration confirmed / usable / required in long-term assay,hiPSC,40 ng/mL
same,stability (pERK stimulation) after storage of media at 37° C.,phospho-ERK; 7 days at 37° C.,stable
same,concentrations showing a similar effect on growth rate,hiPSC line 19-3; FIG. 3H,5 ng/mL
same,relative potency on growth rate,hiPSC line 19-3; FIG. 3H,more potent than FGF2-K128N
